Consider nine molecules from patent US5380825A (Sigma Chemical Company, priority 1991, dated 1995).

Series [1] has as its system AZT antibodies. In words: Immunological activity / tracer performance in FPIA for AZT (qualitative). The class given is binding. Particulars: qualitative. How it is done:
(§1) An equal volume of precipitation reagent was added per microcentrifuge tube. The tubes were centrifuged at greater than 9,000×g for 1 minute.
(§2) (2) A 17.5 ul sample of each serum extract was brought to approximately pH 7-8 by the addition of buffer.
(§3) (4) After an appropriate incubation time, the polarization of each reaction mixture was determined using a polarization spectrofluorimeter.

Series [2] has as its system antibodies from Rabbit No. 2 produced in response to immunization with AZT-3-V:BSA. In words: AZT microtiter plate enzyme immunoassay (EIA). It is filed as binding. Conditions: tracer AZT-3-V:HRPO; for Net Absorbence (B): zero standard 0.367. How it is done: (§4) The immunogen (1 mg in 1 ml) was emulsified with an equal volume of Freund's Complete Adjuvant and injected intradermally into each of two female albino rabbits. The process was repeated in two weeks. Two weeks later, monthly subcutaneous booster injections were begun with 0.5 mg in 0.5 ml of the immunogen and 0.5 ml of Freund's Incomplete Adjuvant per animal. The rabbits were bled biweekly by a marginal ear vein technique beginning six weeks after the primary immunization. The blood collected was refrigerated, allowing clots to form, and the supernatant (antiserum) retained. The antiserum from each rabbit was collected and stored, either at -20° C. without preservative, or at 4° C. after addition of sodium azide to a final concentration of 0.1%. The same schedule was followed for each immunogen. Rabbits immunized produced antibodies to AZT.
To each well of a 96 well microtiter plate was added 100 ul of diluted rabbit antibodies (Example 45) to AZT-3-V:BSA prepared via active ester (Example 4) previously fractionated with ammonium sulfate. After incubation overnight, the plate was washed and 300 ul of diluted normal rabbit serum was added to each well to block any unbound sites on the plastic surface of the microtiter plate. The plate was again washed and the excess moisture removed. […] The plate was incubated for 60 minutes at room temperature. The plate was then washed and 300 ul of diluted o-phenylenediaminehydrogen peroxide substrate solution was added to each well. The color was allowed to develop for 90 minutes at room temperature in the dark. Absorbances were then measured spectrophotometrically for each well.

Series [3] relates to antibodies from Rabbit No. 1 produced in response to immunization with AZT-3-V:BSA. In words: Fluorescence polarization immunoassay (FPIA) for AZT, standard curve. It is filed as binding. Particulars: tracer AZT-3-B:FAM Isomer I, zero standard 166. As to the method: as §4
(§5) Fluorescence Polarization Immunoassay for AZT
The following procedure illustrates the use of various materials of the invention in a preferred FPIA method.
as §1, §2, §3
For orientation: In fluorescence polarisation assays a small probe gives low polarisation when free and higher when bound to something large.

For series [4] the following is noted: at high dosage levels; cited from earlier work.
For series [5] the following is noted: major metabolite of AZT; cited from earlier work.
Series [6] can be described thus: Solubility in water. The class given is physicochemical. Conditions: UV, assuming E^M275 = 8600, read-out: concentration of saturated aqueous solution. How it is done: A mixture of 25 mg AZT-3-AA (Example 19), 15 mg NOS and 15 mg DCC in 1 ml of THF was stirred two hours at room temperature, then a solution of 25 mg TME in 500 ul of THF/MeOH (9+1) was added and the mixture was stirred overnight at room temperature. The suspension was filtered through a PTFE membrane to remove dicyclohexylurea and chromatographed by TLC on silica gel-F 250 um using the solvent system CHCl3 /MeOH/HOAc (90+10+1). Three major UV-absorbing bands were located: TME, Rf =0.13, ninhydrin positive, Pauly positive, migrates with TME reference; NOS, Rf =0.33, ninhydrin negative, Pauly negative, migrates with NOS reference; and product, Rf =0.40, ninhydrin negative, Pauly positive. The band corresponding to the product was scraped, eluted with MeOH and rechromatographed on RPF 250 um using the solvent system MeOH/H2 O/HOAc (33+66+2) to remove a trace of NOS. In this second chromatography system, Rf =0.42 (product) and Rf =0.81 (NOS). The product was eluted with MeOH/THF (1+1). A saturated aqueous solution was prepared and filtered through a PTFE membrane and stored at -20° C. The saturated aqueous solution was characterized by a UV wavelength scan and concentration of the solute was calculated to be 47 ug/ml, assuming E^M275 =8600.

Series [7] concerns antibody to AZT. Nature of the series: Nephelometric inhibition immunoassay (NIA) for AZT. The class given is binding. Particulars: qualitative. How it is done:
Typically this conjugate is prepared from a high molecular weight carrier such as horse apoferritin or serum proteins.

Series [8] concerns antisera to AZT, Rabbit 1 (immunized with AZT-3-V:BSA). Nature of the series: FPIA comparison of tracers, antiserum of Rabbit 1 (Table 1). Conditions: for Polarization Units (P × 1000): 1 pmole of tracer, antiserum at the given titer; for ED50 AZT: concentration of AZT giving 50% reduction in polarization of this tracer relative to 0 tube; for Titer [Ab]: dilution of antiserum required to obtain the given polarization units with 1 pmole of tracer. It is filed as binding. As to the method:
as §4, §5, §1, §2, §3
(§6) As further illustration of the invention polyclonal antibodies were raised in two rabbits by immunization with the conjugate of Example 4 (AZT-3-V:BSA) as is more fully described in Example 45 and stored at 4° C. with 0.1% sodium azide. A number of tracers were then compared as to their performance in FPIA using the antisera raised from two rabbits.
(§7) ^(1) TITER was defined as the dilution of antiserum (i.e., [Ab])
(§8) required to obtain the given polarization units (P × 1000) with 1
(§9) required to give a 50% reduction in polarization relative to a control (0
(§10) tube) containing no unlabeled AZT.

Series [9] deals with antisera to AZT, Rabbit 2 (immunized with AZT-3-V:BSA). In words: FPIA comparison of tracers, antiserum of Rabbit 2 (Table 1). The class given is binding. Particulars: for Polarization Units (P × 1000): 1 pmole of tracer, antiserum at the given titer; for ED50 AZT: concentration of AZT giving 50% reduction in polarization of this tracer relative to 0 tube; for Titer [Ab]: dilution of antiserum required to obtain the given polarization units with 1 pmole of tracer. How it is done:
as §4, §5, §1, §2, §3, §6, §7, §8, §9, §10

For series [10], the system named is AZT antibodies. In words: Fluorescence quenching technique for assaying AZT. The class given is binding. Conditions: qualitative. From the text:
Fluorescence quenching and fluorescence enhancement immunoassays are other homogeneous fluorescent assays based on the observation that some antibodies, upon binding to a fluorescent molecule, cause either an enhancement or decrease in fluorescence.

Converted amounts (≈) assume the structure as drawn.

Regarding `Cc1cn([C@H]2C[C@H](N=[N+]=[N-])[C@@H](CO)O2)c(=O)[nH]c1=O` (single isomer, unassigned) [AZT, 3'-azido-3'-deoxythymidine], in series [1], the “immunological activity in FPIA for AZT” value is listed as “immunologically active”. Moreover, the “% B/Bo” value in [2] (AZT 0.1 ng/ml) was found to be 88%; in series [2] (AZT 0.4 ng/ml), 74%; in series [2] (AZT 1.6 ng/ml), 56%; in series [2] (AZT 6.3 ng/ml), 41%; in series [2] (AZT 25.3 ng/ml), 23%; in [2] (AZT 101.1 ng/ml), 12%. For the same molecule, the “Net Absorbence (B)” value in series [2] (AZT 0.1 ng/ml) is 0.323; in series [2] (AZT 0.4 ng/ml) it was 0.273; in series [2] (AZT 1.6 ng/ml) it was 0.205; in series [2] (AZT 6.3 ng/ml) it was 0.149; in [2] (AZT 25.3 ng/ml) it was 0.085; in [2] (AZT 101.1 ng/ml) it was 0.044. Also, the “Polarization Units (P × 1000)” value was 155 P × 1000 in [3] (AZT 0.2 uM); 141 P × 1000 in series [3] (AZT 0.6 uM); 118 P × 1000 in series [3] (AZT 1.7 uM); 87 P × 1000 in series [3] (AZT 5.0 uM); 61 P × 1000 in series [3] (AZT 14.7 uM). Also, in [4], the side effects result was “serious side effects at high dosage levels”.

For the molecule `Cc1cn([C@H]2C[C@H](N=[N+]=[N-])[C@@H](CO[C@@H]3O[C@H](C(=O)O)[C@@H](O)[C@H](O)[C@H]3O)O2)c(=O)[nH]c1=O` [AZT-5'-glucuronide], the pharmacological activity result in [5] was “believed to be pharmacologically inactive”.

As for `COC(=O)C(Cc1ccc(O)cc1)NC(=O)Cn1c(=O)c(C)cn([C@H]2C[C@H](N=[N+]=[N-])[C@@H](CO)O2)c1=O` (stereo partly drawn) [Example 24, 2-[2-(3'-azido-3'-deoxythymid-3-yl)-acetamido]-3-(4-hydroxyphenyl)-propionic acid methyl ester], the “immunological activity in FPIA for AZT” value in series [1] was “immunologically active”. Further, in [6], the solubility was found to be 47 µg/mL (≈ 93.5 µM). Besides, in series [7], the “immunological activity in NIA for AZT” value is on record as “immunologically active”.

Consider `Cc1cn([C@H]2C[C@H](N=[N+]=[N-])[C@@H](CO)O2)c(=O)n(CCNC(=S)Nc2ccc3c(c2)C(=O)OC32c3ccc(O)cc3Oc3cc(O)ccc32)c1=O` [Example 29, 5-[2-(3'-azido-3'-deoxythymid-3-yl)-ethyl-thiocarbamyl]fluorescein], for which, in series [8], the “Polarization Units (P × 1000)” value is 180 P × 1000, the “ED50 AZT” value worked out at 3.9 µg/mL (≈ 5.57 µM) and the “Titer [Ab]” value was determined as 150. In [1], the “performance as tracer for determination of AZT by FPIA” value (shortened to “performance as tracer”) is “satisfactory tracer”. Further, in series [9], the “Polarization Units (P × 1000)” value amounted to 177 P × 1000, the “ED50 AZT” value came to 2.9 µg/mL (≈ 4.14 µM) and the “Titer [Ab]” value is 58.

With `Cc1cn([C@H]2C[C@H](N=[N+]=[N-])[C@@H](CO)O2)c(=O)n(CCCNC(=S)Nc2ccc3c(c2)C(=O)OC32c3ccc(O)cc3Oc3cc(O)ccc32)c1=O` [Example 30, 5-[3-(3'-azido-3'-deoxythymid-3-yl)-propyl-thiocarbamyl]fluorescein], in series [8], the “Polarization Units (P × 1000)” value is on record as 159 P × 1000, the “ED50 AZT” value is greater than 4.0 µg/mL and the “Titer [Ab]” value came out at 80. Also, the “performance as tracer” value in [1] is listed as “satisfactory tracer”. In addition, in series [9], the “Polarization Units (P × 1000)” value turned out to be 170 P × 1000, the “ED50 AZT” value amounted to 4.0 µg/mL (≈ 5.6 µM) and the “Titer [Ab]” value was determined as 80.

Turning to `COc1nc(NCCCn2c(=O)c(C)cn([C@H]3C[C@H](N=[N+]=[N-])[C@@H](CO)O3)c2=O)nc(Nc2ccc3c(c2)C(=O)OC32c3ccc(O)cc3Oc3cc(O)ccc32)n1` [Example 32, 3-[3-[4-(fluoresceinyl-5)-6-methoxy-s-triazin-2-yl]-aminopropyl]-3'-azido-3'-deoxythymidine], in series [8], the “Polarization Units (P × 1000)” value was 179 P × 1000, the “ED50 AZT” value was found to be 3.1 µg/mL (≈ 3.98 µM) and the “Titer [Ab]” value is reported as 550. Moreover, in series [1], the “performance as tracer” value is given as “satisfactory tracer”. In addition, in [9], the “Polarization Units (P × 1000)” value came to 170 P × 1000, the “ED50 AZT” value is listed as ~ 8.0 ug/ml and the “Titer [Ab]” value turned out to be 183.

In the case of `Cc1cn([C@H]2C[C@H](N=[N+]=[N-])[C@@H](CO)O2)c(=O)n(CCCNc2nc(Cl)nc(Nc3ccc4c(c3)C(=O)OC43c4ccc(O)cc4Oc4cc(O)ccc43)n2)c1=O` [Example 34, 3-[3-[4-(Fluoresceinyl-5)-6-chloro-s-triazin-2-yl]-aminopropyl]-3'-azido-3'-deoxythymidine], in series [8], the “Polarization Units (P × 1000)” value came to 171 P × 1000, the “ED50 AZT” value was 2.0 µg/mL (≈ 2.55 µM) and the “Titer [Ab]” value is reported as 500. In addition, the “immunological activity in FPIA for AZT” value in [1] is “immunologically active”. Moreover, in series [9], the “Polarization Units (P × 1000)” value is on record as 168 P × 1000, the “ED50 AZT” value was determined as 4.0 µg/mL (≈ 5.11 µM) and the “Titer [Ab]” value was determined as 140.

With `Cc1cn([C@H]2C[C@H](N=[N+]=[N-])[C@@H](COC(=O)CCC(=O)Nc3ccc4c(c3)C(=O)OC43c4ccc(O)cc4Oc4cc(O)ccc43)O2)c(=O)[nH]c1=O` [Example 41, 5-[(3'-azido-3'-deoxythymid-5'-yl)-succinamido]-fluorescein], in series [10], the “immunoactivity by fluorescence quenching technique” value is on record as “Immunoactivity of the product was demonstrated”.

As for `COC(=O)C(Cc1ccc(O)cc1)NC(=O)CCC(=O)OC[C@H]1O[C@@H](n2cc(C)c(=O)[nH]c2=O)C[C@@H]1N=[N+]=[N-]` (stereo partly drawn) [Example 43, 2-[(3'-azido-3'-deoxythymid-5'-yl)-succinamido]-3-(4-hydroxyphenyl)-propionic acid methyl ester], the “immunological activity in FPIA for AZT” value in series [1] was “immunologically active”. Besides, the “immunological activity in NIA for AZT” value in series [7] was “immunologically active”.
